Laboratory results as given in patent US11840533B2, “Pyridinone-based epigenetic modifiers and uses thereof” (THE BOARD OF TRUSTEES OF THE UNIVERSITY OF ILLINOIS, priority 2017, dated 2023).

Tested on: fulvestrant-resistant MCF7:5C-FR cells
Assay: Fulvestrant-resistant breast cancer cell viability (cell proliferation) assay
Assay type: cell-based
Conditions: growth inhibition in fulvestrant-resistant MCF-7:CFR cells, 120 hrs
Description: For the cell proliferation assay, the fulvestrant-resistant MCF7:5C-FR cells were seeded at about 2000 to about 2500/well in 96-well plates. The next day, compounds were add to the cells at desired serial concentrations form 3 nM to 10 uM. A final 0.1% (v/v) DMSO was used as vehicle control and 1 uM JQ1 was used as positive. The cell were grown in the normal culture condition for 120 hrs. Then the Hoechst 33342 dye were add to each well at a final concentration of 5 μg/ml, and put back to the incubator at 37 C for 90 min. The plates were scanned immediately after the incubation with Celigo (Nexcelcom Biocesnse) for the fluorescence of the nuclear using DAPI channel, and the cell number was counted thought the analysis function of the Celigo software. The normalized cell number to the vehicle control was used to represent the cell proliferation. […] N.D.=Not determined.

Compound | IC50 (120 h) [µM] | IC50 [µM]
CCS(=O)(=O)Nc1cc(-c2cn(C)c3c(O)nccc23)cc2c1cnn2C(C)(c1ccccn1)c1ccccn1 [Compound 63, N-(1-(1,1-di(pyridin-2-yl)ethyl)-6-(7-hydroxy-1-methyl-1H-pyrrolo[2,3-c]pyridin-3-yl)-1H-indazol-4-yl)ethanesulfonamide] | < 1 | –
CCS(=O)(=O)Nc1cc(-c2cn(C)c3c(O)nccc23)cc2c1ccn2Cc1cccc(Cl)c1Cl [Compound 47, N-(1-(2,3-dichlorobenzyl)-6-(7-hydroxy-1-methyl-1H-pyrrolo[2,3-c]pyridin-3-yl)-1H-indol-4-yl)ethanesulfonamide] | < 1 | –
Cn1cc(-c2cc(NS(C)(=O)=O)c3ncn(Cc4ccc(F)cc4)c3c2)c2ccnc(O)c21 [Compound 38, N-(1-(4-fluorobenzyl)-6-(7-hydroxy-1-methyl-1H-pyrrolo[2,3-c]pyridin-3-yl)-1H-benzo[d]imidazol-4-yl)methanesulfonamide] | < 0.2 | –
CCS(=O)(=O)Nc1cc(-c2cn(C)c3c(O)nccc23)cc2c1ccn2Cc1cccc2ccsc12 [Compound 53, N-(1-(benzo[b]thiophen-7-ylmethyl)-6-(7-hydroxy-1-methyl-1H-pyrrolo[2,3-c]pyridin-3-yl)-1H-indol-4-yl)ethanesulfonamide] | < 1 | –
CCS(=O)(=O)Nc1cc(-c2cn(C)c3c(O)nccc23)cc2c1cnn2Cc1ccc(F)cc1F [Compound 34, N-(1-(2,4-difluorobenzyl)-6-(7-hydroxy-1-methyl-1H-pyrrolo[2,3-c]pyridin-3-yl)-1H-indazol-4-yl)ethanesulfonamide] | < 0.5 | –
CCS(=O)(=O)Nc1cccc2c1nc(-c1cn(C)c3c(O)nccc13)n2Cc1ccc(F)cc1 [Compound 40, N-(1-(4-fluorobenzyl)-2-(7-hydroxy-1-methyl-1H-pyrrolo[2,3-c]pyridin-3-yl)-1H-benzo[d]imidazol-4-yl)ethanesulfonamide] | < 1 | –
CCS(=O)(=O)Nc1cc(-c2cn(C)c3c(=O)[nH]ccc23)cc2c1ccn2C(C)(c1nccs1)c1nccs1 [Compound 102, N-(1-(1,1-di(thiazol-2-yl)ethyl)-6-(1-methyl-7-oxo-6,7-dihydro-1H-pyrrolo[2,3-c]pyridin-3-yl)-1H-indol-4-yl)ethanesulfonamide] | < 1 | –
CCS(=O)(=O)Nc1cccc2c1nc(-c1cn(C)c3c(O)nccc13)n2Cc1ccc(F)cc1F [Compound 43, N-(1-(2,4-difluorobenzyl)-2-(7-hydroxy-1-methyl-1H-pyrrolo[2,3-c]pyridin-3-yl)-1H-benzo[d]imidazol-4-yl)ethanesulfonamide] | < 1 | –
Cn1cc(-c2cc(C(C)(C)O)c3ccn(C(C)(c4cnccn4)c4cnccn4)c3c2)c2cc[nH]c(=O)c21 [Compound 109, 3-(1-(1,1-di(pyrazin-2-yl)ethyl)-4-(2-hydroxypropan-2-yl)-1H-indol-6-yl)-1-methyl-1,6-dihydro-7H-pyrrolo[2,3-c]pyridin-7-one] | < 1 | –
Cn1cc(C(=O)c2ccccc2Cl)c2ccnc(O)c21 [Compound 6, (2-chlorophenyl)(7-hydroxy-1-methyl-1H-pyrrolo[2,3-c]pyridin-3-yl)methanone] | > 5 | –
CCS(=O)(=O)Nc1cc(-c2cn(C)c3c(O)nccc23)cc2c1cnn2Cc1ccc(F)cc1Cl [Compound 35, N-(1-(2-chloro-4-fluorobenzyl)-6-(7-hydroxy-1-methyl-1H-pyrrolo[2,3-c]pyridin-3-yl)-1H-indazol-4-yl)ethanesulfonamide] | < 0.5 | –
Cn1cc(-c2cn(CC(N)=O)c3ccc(Br)cc23)c2ccnc(O)c21 [Compound 18, 2-(5-bromo-3-(7-hydroxy-1-methyl-1H-pyrrolo[2,3-c]pyridin-3-yl)-1H-indol-1-yl)acetamide] | > 1 | –
C=CC(=O)Cn1cc(-c2cc(NS(C)(=O)=O)c3ccn(Cc4ccccc4)c3c2)c2ccnc(O)c21 [Compound 97, N-(1-benzyl-6-(7-hydroxy-1-(2-oxobut-3-en-1-yl)-1H-pyrrolo[2,3-c]pyridin-3-yl)-1H-indol-4-yl)methanesulfonamide] | > 0.1 | –
CCC(c1ccccn1)(c1ccccn1)n1ccc2c(NS(=O)(=O)CC)cc(-c3cn(C)c4c(=O)[nH]ccc34)cc21 [Compound 126, N-(1-(1,1-di(pyridin-2-yl)propyl)-6-(1-methyl-7-oxo-6,7-dihydro-1H-pyrrolo[2,3-c]pyridin-3-yl)-1H-indol-4-yl)ethanesulfonamide] | < 0.01 | –

Continued, values first:

IC50 (120 h) [µM] | IC50 [µM] | Compound
< 0.1 | – | CC(C)C(=O)Nc1cc(-c2cn(C)c3c(=O)[nH]ccc23)cc2c1ccn2C(C)(c1ccccn1)c1ccccn1 [Compound 131, N-(1-(1,1-di(pyridin-2-yl)ethyl)-6-(1-methyl-7-oxo-6,7-dihydro-1H-pyrrolo[2,3-c]pyridin-3-yl)-1H-indol-4-yl)isobutyramide]
3.5 | – | Cc1cc(F)ccc1Cn1ccc2cc(NS(C)(=O)=O)cc(-c3cn(C)c4c(O)nccc34)c21 [Compound 21, N-(1-(4-fluoro-2-methylbenzyl)-7-(7-hydroxy-1-methyl-1H-pyrrolo[2,3-c]pyridin-3-yl)-1H-indol-5-yl)methanesulfonamide]
> 1 | – | CNS(=O)(=O)CCc1ccc(OC)cc1C(=O)c1cn(C)c2c(O)nccc12 [Compound 15, 2-(2-(7-hydroxy-1-methyl-1H-pyrrolo[2,3-c]pyridine-3-carbonyl)-4-methoxyphenyl)-N-methylethane-1-sulfonamide]
< 0.2 | – | CCS(=O)(=O)Nc1cc(-c2cn(C)c3c(O)nccc23)cc2c1ccn2Cc1ccc(F)cc1 [Compound 24, N-(1-(4-fluorobenzyl)-6-(7-hydroxy-1-methyl-1H-pyrrolo[2,3-c]pyridin-3-yl)-1H-indol-4-yl)ethanesulfonamide]
< 1 | – | CS(=O)(=O)Nc1cc(-c2cn(CC3CO3)c3c(O)nccc23)cc2c1ccn2Cc1ccc(F)cc1 (stereo not drawn) [Compound 89, N-(1-(4-fluorobenzyl)-6-(7-hydroxy-1-(oxiran-2-ylmethyl)-1H-pyrrolo[2,3-c]pyridin-3-yl)-1H-indol-4-yl)methanesulfonamide]
– | < 0.1 | N-(1-benzhydryl-6-(1-methyl-7-oxo-6,7-dihydro-1H-pyrrolo[2,3-c]pyridin-3-yl)-1H-indol-4-yl)ethanesulfonamide [Compound 130]
< 1 | – | CCS(=O)(=O)Nc1cc(-c2cn(C)c3c(O)nccc23)cc2c1ccn2Cc1c(C)cc(F)cc1C [Compound 27, N-(1-(4-fluoro-2,6-dimethylbenzyl)-6-(7-hydroxy-1-methyl-1H-pyrrolo[2,3-c]pyridin-3-yl)-1H-indol-4-yl)ethanesulfonamide]
< 0.2 | – | CCS(=O)(=O)Nc1cc(-c2cn(C)c3c(O)nccc23)cc2c1cnn2Cc1ccc(F)cc1C [Compound 32, N-(1-(4-fluoro-2-methylbenzyl)-6-(7-hydroxy-1-methyl-1H-pyrrolo[2,3-c]pyridin-3-yl)-1H-indazol-4-yl)ethanesulfonamide]
< 1 | – | Cc1cc(F)cc(C)c1Cn1ccc2c(C(C)(C)O)cc(-c3cn(C)c4c(=O)[nH]ccc34)cc21 [Compound 108, 3-(1-(4-fluoro-2,6-dimethylbenzyl)-4-(2-hydroxypropan-2-yl)-1H-indol-6-yl)-1-methyl-1,6-dihydro-7H-pyrrolo[2,3-c]pyridin-7-one]
0.526 | – | Cc1cc(F)cc(C)c1Cn1ccc2cc(NS(C)(=O)=O)cc(-c3cn(C)c4c(O)nccc34)c21 [Compound 22, N-(1-(4-fluoro-2,6-dimethylbenzyl)-7-(7-hydroxy-1-methyl-1H-pyrrolo[2,3-c]pyridin-3-yl)-1H-indol-5-yl)methanesulfonamide]
